The values below come from a melting point compilation (Tetko et al.).

Bounds are passed on as bounds.

As to `FC(F)(F)C(F)(F)C(F)(F)C(F)(F)C(F)(F)C(F)(F)C(F)(F)C(F)(F)Br`, the melting point is < 25 °C. As to `CC(=O)c1cc(Cl)c(N)c(Cl)c1`, the melting point lay within 161 to 165 °C. The value for `O=Cc1cc(Br)ccc1O` was 105 °C; that for `COc1cc(C2Nn3c(nnc3-c3cccnc3)S2)ccc1O` (configuration not stated) was 216 °C; that for `COC(=O)C1Cc2c3c(c4c(c2CC1C(=O)OC)CC(C(=O)OC)C(C(=O)OC)C4)CC(C(=O)OC)C(C(=O)OC)C3` (configuration not stated) was 261 to 263 °C. The value for `O=C(O)C1=CC(=C(c2ccc(O)c(C(=O)O)c2)c2ccc(O)c(C(=O)O)c2)C=CC1=O` was 300 °C; that for `ON(Cc1c(F)cccc1Cl)Cc1c(F)cccc1Cl` was 169 to 171 °C; that for `Nc1cc2ccccc2c2ccccc12` was 138 °C. Next, `NC(=S)C1COc2ccccc2O1` (configuration not stated): 180 to 183 °C. In the case of `Cc1cc(C)c2ccccc2c1C`, the melting point is 55.5 °C.

On to `O=[N+]([O-])c1ccc(Nc2ccccc2O)c([N+](=O)[O-])c1`, for which the melting point was found to be 198 °C. `O=C(Oc1ccccc1)n1c(C(F)(F)F)nc2cc(Cl)c(Cl)cc21` yielded a melting point of 103 °C. `CC(C)[C@@H](NC(=O)OC(C)(C)C)C(=O)O` showed a melting point of 164 to 165 °C. Next, `Cc1nc(C)c(C(=O)O)s1`: 233 to 235 °C; `CCOC(=O)c1cc(C)on1`: 29 °C. For the molecule `Cn1nc(-c2ccccc2)cc1C(=O)Cl`, the melting point is 88 to 89 °C. Next, `O=C(O)C=Cc1cccc(C(Br)=C(Br)C(=O)O)c1`: 214 °C; `Cc1ccc(SSc2ccc(C)cc2)cc1`: 47.5 °C; `OC(c1ccc(Br)cc1)C1CC1` (configuration not stated): 57 to 57.5 °C. Next, `CCCCCCN1CC(C(=O)OC)CC1=O` (configuration not stated): 4 °C.

Consider `CN(C)CC(O)Cn1c2ccc(Br)cc2c2cc(Br)ccc21` (configuration not stated), for which the melting point is 153 to 154 °C. Consider `N#CC(N)=C(N)C#N`, for which the melting point was 178 to 179 °C. As for `O=C1CCCC1C1(O)C(=O)Nc2ccccc21` (configuration not stated), the melting point turned out to be 187 °C. Next, `COc1ccccc1-n1[nH]cc2c(=O)ncnc1-2`: 271 °C; `Nc1ccc(Oc2ccccc2)nc1`: 71 to 72 °C; `COC(=O)c1ccc(OC)c([N+](=O)[O-])c1`: 111 °C. Take `Cc1ccccc1CCC(=O)O`: the melting point is 104 to 106 °C. The value for `C#CCN1CCS(=O)(=O)CC1` was 114 to 116 °C; that for `CCC1C(C#N)=C(N)Oc2c1c(=O)oc1ccccc21` (configuration not stated) was 233 to 237 °C. Next, `COc1cc(NCc2ccc3nc(N)nc(N)c3c2C)cc(OC)c1OC`: 216 °C; `Cc1ccccc1/C=C(\C#N)c1nc2ccccc2n1C`: 269 °C. The value for `Cc1ccc(Cl)c(N)c1Cl` was 37 to 40 °C. `Cc1cc([N+](=O)[O-])c[nH]c1=O` registered a melting point of 230 to 234 °C. Next, `COc1cc(O)ccc1Br`: 79 °C; `CCCCCCCCCCc1cc(-c2cc(-c3ccccc3)c3ccccc3n2)sc1-c1sc(-c2cc(-c3ccccc3)c3ccccc3n2)cc1CCCCCCCCCC`: 21.9 °C. With `O=[N+]([O-])c1ccc(S(=O)(=O)OCc2cccc(OS(=O)(=O)c3ccc([N+](=O)[O-])cc3)c2)cc1`, the melting point lay in the range of 199 to 202 °C. `O=C(O)CCCCCCCCCCCCCCC(=O)O` showed a melting point of 124 to 126 °C.

The molecule `OCC(O)C(O)C(OC1OC(CO)C(O)C(O)C1O)C(O)CO` (configuration not stated) came in with a melting point of 151 °C. With `COC(=O)c1ccccc1NC(C)=O`, the melting point was in the range of 97 to 101 °C.

In the case of `Cc1ccc(O)c(C(O)c2ccccc2)c1` (configuration not stated), the melting point worked out at 103 °C. Next, `COc1cc2c(cc1O)[C@H](C)N(C)CC2`: 182 °C; `N#CC(C#N)=c1ccc(=C(C#N)C#N)cc1`: 287 to 289 °C. The value for `N#CC#N` was -27.9 °C. As to `Cc1ccc(O)c2c1CCC2`, the melting point fell in the range of 82 to 83 °C. Next, `Nc1ccc(-c2ccc(Cl)cc2)cc1`: 134 °C; `Cc1c(Cl)cc(-c2ccc(=O)[nH]n2)cc1Cl`: 252 °C; `CN1CCNC(=O)CCSCCSCCC1=O`: 115 to 116 °C. The value for `CC1(C)CC(=O)c2c(C(=O)c3cccs3)noc2C1` was 131 °C. Next, `CC1=C(C(=O)OCC(C)C)C(c2ccco2)NC(=O)N1` (configuration not stated): 170 to 171 °C; `O=[N+]([O-])c1c(Br)sc(Br)c1[N+](=O)[O-]`: 136 °C; `CCOC(=O)c1cn[nH]c1NC(=O)Nc1cccc(Cl)c1`: 257 to 259 °C.

For the molecule `CCCCNc1cc(C(=O)O)cc(S(N)(=O)=O)c1Oc1ccccc1`, the melting point came out at 231 °C. As to `O=C1OC(c2ccccn2)Cc2ccccc21` (configuration not stated), the melting point worked out at 156 °C. For the molecule `CCOc1nc(NC)nc(NC(=O)NS(=O)(=O)c2ccccc2C(=O)OC)n1`, the melting point amounted to 194 °C.

In turn, `O=[N+]([O-])/C=C/c1ccccc1` showed a melting point of 58 °C.

In turn, `C/C(=N/NC(N)=O)C(=O)Nc1ccccc1` returned a melting point of 236 to 238 °C. The value for `CC(Oc1ccc(OC(F)(F)F)cc1)C(=O)O` (configuration not stated) was 76 to 78 °C. For `CCCCOc1ccc(NC(C)=O)cc1`, the melting point lay in the range of 110 to 112 °C. Take `NC1=NC(=O)C(c2ccccc2)O1` (configuration not stated): the melting point is 256 °C.

As to `C[C@@]12CCC[C@@]1(O)[C@@H]1CC=C3CC(O)CC[C@]3(C)[C@H]1CC2` (some centres not stated), the melting point fell in the range of 201 to 203 °C. Next, `Clc1cccc2c1Oc1ccccc1O2`: 104 °C; `CCCCOC(=O)COc1cc(Cl)c(Cl)cc1Cl`: 28.5 °C; `COc1ccc(CCc2cc(OC)c3ccccc3n2)cc1OC`: 116 °C. Next, `CC(Cl)C(N)=O` (configuration not stated): 76 to 81 °C. Next, `C1CCC2C(C1)CCC1C3CCCCC3CCC21` (configuration not stated): 115 °C. Regarding `Nc1nn2c(C(F)(F)F)cc(=O)[nH]c2c1/N=N/c1c(Br)cc(Br)cc1Br`, the melting point lay in the range of 92 to 94 °C. Turning to `Nc1cc(=O)oc2ccccc12`, the melting point was in the range of 232 to 234 °C.

In turn, `Cc1ccc(C(=O)OC(C(=O)O)C(OC(=O)c2ccc(C)cc2)C(=O)O)cc1` (single isomer, unassigned; (+)) showed a melting point of 165 to 167 °C.

For `CN1CCN(Cc2ccccc2N)CC1`, the melting point lay within 87 to 88 °C.

Take `COC1(OC)C2C=C3OC(=O)C1C3(C)O2` (configuration not stated): the melting point was 199 to 201 °C. In the case of `Oc1cc(Br)ccn1`, the melting point came out at 203 °C. Next, `CC1(O)CNC(=O)C1` (configuration not stated): 140 °C; `O=C(O)CC1NC(=O)NC1=O` (configuration not stated): 213 to 216 °C; `O=C(Cl)c1cc2cc(Br)ccc2o1`: 106 to 107 °C. Regarding `Cc1ccc([N+](=O)[O-])c2ccccc12`, the melting point was 71.5 °C. Next, `Nc1c(Cl)cc(Br)cc1Cl`: 87 °C.

Molecule `Cc1cccc(CCC(=O)O)c1` registered a melting point of 41 to 44 °C. The value for `O=C(O)c1ccc(CN2CCS(=O)(=O)CC2)cc1` was 222 to 223 °C; that for `CN(C)S(=O)(=O)N(SC(F)(Cl)Cl)c1ccccc1` was 106 °C; that for `S=C(Nc1cccc2ccccc12)Nc1cccc2ccccc12` was 208 °C. In turn, `Clc1cc2c(Cl)cccc2c(Cl)c1Cl` came in with a melting point of 141 °C. The value for `CC(C)NC(=S)NN` was 96 to 97 °C; that for `COc1ccc(CC(=O)O)cc1O` was 128 to 130 °C; that for `CC(C)CN1C(=O)N2CCc3ccccc3C2(c2ccc(Cl)cc2)C1=O` (configuration not stated) was 120 to 121 °C. With `CC(C)C(=O)Cl`, the melting point was -90 °C. `FC(F)(F)c1cnc(N2CCNCC2)c(Cl)c1` showed a melting point of 65 to 67 °C.

`CC1(C)CC(=O)C2=C(C1)Nc1ccc3ccccc3c1C2c1ccccc1` (configuration not stated): the melting point amounted to 314 °C. With `CC(=O)N(C(C)=O)c1cc([N+](=O)[O-])c(/C=C/c2ccccc2)c([N+](=O)[O-])c1/C=C/c1ccccc1`, the melting point is 175 °C.

Molecule `CC1(C)OC2OC(CO)C(O)C2O1` (configuration not stated) showed a melting point of 68 to 70 °C.

As to `CC(C)(O)CCl`, the melting point was -20 °C.

As for `COc1ccc2c(c1)N(CC(C)CN1CCC(O)CC1)c1ccccc1S2` (configuration not stated), the melting point came out at 138 °C. Take `N#Cc1ncccc1N1CCCCC1`: the melting point lay in the range of 67 to 69 °C.

Turning to `Sc1ccccc1`, the melting point is -14.9 °C. The value for `Cc1ccc(C(C)(C)C)cc1` was -54 °C. In the case of `Brc1ccc(Oc2ccc(Br)cc2Br)cc1`, the melting point was in the range of 64 to 64.5 °C. As for `Cc1cc(C)c(C[S+]([O-])Cc2c(C)cc(C)cc2C)c(C)c1`, the melting point turned out to be 210 °C. The value for `CCCCC(=O)OCN1C(=O)NC(c2ccccc2)(c2ccccc2)C1=O` was 91 °C; that for `O=C(O)COc1ccc([N+](=O)[O-])cc1` was 182 to 188 °C. `COc1ccccc1C1(C)CCc2oc3ccc(Cl)cc3c2-c2oc(C)cc21` (configuration not stated) yielded a melting point of 197 to 198 °C. In the case of `CCN(CC)C(=O)c1ccc(O)c(OC)c1`, the melting point is 95 °C. Next, `Fc1cc2nc(S)[nH]c2cc1Cl`: 298 to 301 °C; `O=C(O)c1cscc1S(=O)(=O)c1ccc(Cl)cc1`: 214 to 216 °C. The value for `CN(C)c1ccc(C=C2C(=O)NN=C2c2c(O)c3ccccc3n(C)c2=O)cc1` was 262 °C. The value for `c1ccc(-c2nc3ccccc3o2)cc1` was 103 °C; that for `COc1ccc(-n2c(=S)[nH]c3ccccc3c2=O)cc1` was 307 to 310 °C. `O=[N+]([O-])c1cc(C(F)(F)F)c(Cl)c([N+](=O)[O-])c1Nc1ncc(C(F)(F)F)cc1Cl` showed a melting point of 117 °C.

In turn, `CN(CC(=O)O)CC(=O)O` yielded a melting point of 218 to 221 °C.

As usually defined, the melting point is the temperature of the solid-liquid transition.
